From patent publication US20150258129A1, “Method for Increasing the Activity of Lysosomal Enzymes” (Mount Sinai School of Medicine of New York University, priority 1998, published 2015)
Positions count from the first letter of the chain named.

Legend:
[1] = target: T1, glucocerebrosidase (β-Glu), L444P/L444P (Homo sapiens, UniProt P04062, L483P); assay: Intracellular enhancement of β-Glu activity in Gaucher fibroblasts (L444P/L444P); format: cell-based; conditions: 10 μM, 5 days
T1 construct: endogenous in cells; host or cells: human Gaucher patient fibroblasts, genotype L444P/L444P
T1 sequence (P04062 40-536 L483P): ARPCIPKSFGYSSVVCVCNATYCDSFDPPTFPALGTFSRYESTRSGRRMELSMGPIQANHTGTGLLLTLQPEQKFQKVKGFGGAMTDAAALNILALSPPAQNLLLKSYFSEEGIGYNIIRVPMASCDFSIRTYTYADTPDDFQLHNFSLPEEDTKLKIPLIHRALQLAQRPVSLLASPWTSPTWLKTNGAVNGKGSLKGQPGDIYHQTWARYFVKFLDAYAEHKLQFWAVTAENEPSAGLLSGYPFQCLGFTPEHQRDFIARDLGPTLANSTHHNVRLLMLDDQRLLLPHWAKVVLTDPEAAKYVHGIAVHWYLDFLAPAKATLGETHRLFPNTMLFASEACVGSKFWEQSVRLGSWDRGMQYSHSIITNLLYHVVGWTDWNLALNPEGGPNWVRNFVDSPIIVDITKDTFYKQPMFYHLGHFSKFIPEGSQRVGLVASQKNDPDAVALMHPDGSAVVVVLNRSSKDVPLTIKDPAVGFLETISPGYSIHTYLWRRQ

human lysosomal α-Gal A = target: T2, human lysosomal α-Gal A (Homo sapiens, UniProt P06280); assay: In vitro inhibition of α-Gal A (recombinant, expressed in Sf-9 insect cells); format: biochemical
T2 construct: made in house; host or cells: Sf-9 insect cells, recombinant baculovirus
T2 sequence (P06280 32-429): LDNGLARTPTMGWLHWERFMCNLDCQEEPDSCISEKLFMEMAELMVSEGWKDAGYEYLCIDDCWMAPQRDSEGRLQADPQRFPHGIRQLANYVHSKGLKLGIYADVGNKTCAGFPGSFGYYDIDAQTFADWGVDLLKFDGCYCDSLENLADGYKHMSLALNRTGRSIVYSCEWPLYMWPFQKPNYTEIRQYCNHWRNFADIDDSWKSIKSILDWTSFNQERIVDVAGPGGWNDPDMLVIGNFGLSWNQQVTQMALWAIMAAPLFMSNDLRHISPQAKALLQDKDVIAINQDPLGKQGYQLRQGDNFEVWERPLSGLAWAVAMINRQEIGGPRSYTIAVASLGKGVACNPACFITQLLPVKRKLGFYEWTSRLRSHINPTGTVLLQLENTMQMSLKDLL

[2] = target: coffee bean α-galactosidase (Coffea arabica, UniProt Q42656); conditions: cited from earlier work
mutant α-Gal A (R301Q) = target: T3, mutant α-Gal A (R301Q) (Homo sapiens, UniProt P06280, R301Q); assay: Intracellular enhancement of α-Gal A activity in Fabry lymphoblasts; format: cell-based; set-up: endogenous in cells; host or cells: Epstein-Barr virus-transformed lymphoblasts from a Fabry patient (R301Q); conditions: for intracellular α-Gal A activity in Fabry lymphoblasts (summary): concentration ranges of 10-1000 μM; for α-Gal A activity in R301Q lymphoblasts with increasing concentration of calystegine compound: range 100-1000 μM, FIG. 6
T3 sequence (P06280 32-429 R301Q): T2 sequence (P06280 32-429) with R270Q
Protocol: FIG. 4B depicts results in which each inhibitor was added to the culture medium of R301Q lymphoblasts at a concentration of 100 μM. Cells were subsequently incubated for 4 days. After being washed twice with phosphate-buffered saline, the intracellular enzyme activity was determined with 4-MU-α-Gal as the substrate.
R301Q lymphoblasts were cultured with DGJ (4) ([…]), α-allo-HNJ (9) (▪), α-galacto-HNJ (10) (▴), or β-1-C-butyl-DGJ (16) (♦) at 1-1000 μM for 4 days before being collected for enzyme assay.
In FIG. 6B, R301Q lymphoblasts were cultured with calystegine B2 (18) and the results are shown therein. In FIG. 6C, R301Q lymphoblasts were cultured with N-methyl calystegine A3 (19) and the results are shown therein. In FIG. 6D R301Q lymphoblasts were cultured with N-methyl calystegine B2 (20) at 100-1000 μM for 4 days before being collected for enzyme assay and the results are shown therein.
(§1) The Epstein-Barr virus-transformed lymphoblast lines from a normal adult and a Fabry patient with R301Q mutation in α-Gal A (38) were cultured in RPMI-1640 medium (Nissui Pharmaceutical Co., Tokyo, Japan) supplemented with 10% fetal calf serum (FCS) at 37° C. under 5% CO2. Human fibroblasts from Gaucher and GM1-gangliosidosis patients were cultured in McCoy 5A medium supplemented with 10% FCS at 37° C. under 5% CO2.
Cells were cultured in the presence or absence of inhibitor for 4 days. After being washed twice with phosphate-buffered saline (PBS), the cells were harvested and homogenized in 200 μl of H2O, and 10 μl of the supernatant obtained by centrifugation at 10,000 g was incubated at 37° C. with 50 μl of the substrate solution composed by 6 mM 4-methylumbelliferyl α-D-galactoside (4-MU-α-Gal) and 90 mM N-acetylgalactosamine in 0.1 M citrate buffer (pH 4.5) for enzyme assay. One unit of intracellular enzyme activity was defined as one nmol of 4-methylumbelliferone released per hour at 37° C.

[3] = target: human β-glucocerebrosidase (Homo sapiens, UniProt P04062); assay: In vitro inhibition of human β-glucocerebrosidase; format: biochemical; conditions: 0.1M citrate buffer (pH 5.2), 4-MU-β-Glu as substrate
[4] = target: T4, glucocerebrosidase (β-Glu), N370S/N370S (Homo sapiens, UniProt P04062, N409S); assay: Intracellular enhancement of β-Glu activity in Gaucher fibroblasts (N370S/N370S); format: cell-based; conditions: concentration ranges of 0.05-100 μM
T4 construct: endogenous in cells; host or cells: human Gaucher patient fibroblasts, genotype N370S/N370S
T4 sequence (P04062 40-536 N409S): T1 sequence (P04062 40-536 L483P) with N370S, P444L

[5] = system: lysosomal acid β-galactosidase (β-Gal); assay: Intracellular enhancement of β-Gal activity in GM1-gangliosidosis fibroblasts; format: cell-based, human
Protocol: In FIG. 7A, GM1-gangliosidosis fibroblasts were cultured with DGJ (4) at 500 μM for 5 days before being collected for enzyme assay. In FIG. 7B, GM1-gangliosidosis fibroblasts were cultured with 4-epi-isofagomine (21) at 50 μM for 5 days before being collected for enzyme assay. Strains BGF-1 and BGF-6 were diagnosed as infantile type, and all others were juvenile or adult types.
as §1
Cells were cultured in the presence or absence of inhibitor for 5 days. After being washed twice with PBS, the cells were harvested and homogenized in 200 μl of H2O, and 10 μl of the supernatant obtained by centrifugation at 10,000 g was incubated at 37° C. with 50 μl of the substrate solution of 1 mM 4-methylumbelliferyl β-D-galactoside (4-MU-β-Gal) in 0.1 M citrate buffer (pH 4.5) for enzyme assay. One unit of intracellular enzyme activity was defined as one nmol of 4-methylumbelliferone released per hour at 37° C.

Sequence of human β-glucocerebrosidase (P04062 40-536): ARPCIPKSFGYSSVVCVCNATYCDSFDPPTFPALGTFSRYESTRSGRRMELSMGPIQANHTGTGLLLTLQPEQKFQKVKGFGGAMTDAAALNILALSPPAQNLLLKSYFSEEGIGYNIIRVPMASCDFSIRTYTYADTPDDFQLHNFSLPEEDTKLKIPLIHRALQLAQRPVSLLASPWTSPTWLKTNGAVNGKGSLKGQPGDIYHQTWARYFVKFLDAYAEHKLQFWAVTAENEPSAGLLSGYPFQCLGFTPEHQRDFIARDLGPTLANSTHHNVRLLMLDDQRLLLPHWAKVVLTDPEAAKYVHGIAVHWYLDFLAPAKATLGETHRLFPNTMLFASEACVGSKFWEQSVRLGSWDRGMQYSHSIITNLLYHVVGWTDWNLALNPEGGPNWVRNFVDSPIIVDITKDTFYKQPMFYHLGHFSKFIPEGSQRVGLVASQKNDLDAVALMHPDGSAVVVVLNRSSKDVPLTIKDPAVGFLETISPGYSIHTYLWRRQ
Sequence of coffee bean α-galactosidase (Q42656 16-378): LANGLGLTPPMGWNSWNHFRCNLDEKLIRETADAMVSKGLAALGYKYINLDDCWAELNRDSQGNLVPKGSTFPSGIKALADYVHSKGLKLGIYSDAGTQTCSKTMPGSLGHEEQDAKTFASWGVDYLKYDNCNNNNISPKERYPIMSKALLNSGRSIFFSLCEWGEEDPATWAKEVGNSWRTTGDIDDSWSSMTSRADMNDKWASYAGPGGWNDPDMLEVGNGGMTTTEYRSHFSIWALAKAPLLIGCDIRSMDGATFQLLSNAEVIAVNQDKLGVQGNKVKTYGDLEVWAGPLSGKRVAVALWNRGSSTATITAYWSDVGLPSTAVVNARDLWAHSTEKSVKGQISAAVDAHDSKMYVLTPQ

SMILES | increase of residual β-Glu activity in Gaucher fibroblasts [1] [%] | intracellular α-Gal A activity in Fabry lymphoblasts (summary) (mutant α-Gal A (R301Q)) | IC50 [3] [µM] | α-Gal A activity in R301Q lymphoblasts with increasing concentration of calystegine compound (mutant α-Gal A (R301Q); 4 days) | other results
O[C@@H]1C[C@]2(O)N[C@H]1C[C@@H](O)[C@@H]2O [calystegine B1] | 76 | – | – | – | –
O[C@@H]1[C@@H](O)[C@H](O)[C@]2(O)C[C@@H](O)[C@H]1N2 [calystegine C1] | 136 | – | – | – | –
CCCCC1NC(CO)C(O)C(O)C1O (stereo not drawn) [compound 16, β-1-C-Butyl-deoxygalactonojirimycin] | – | effectively increase | – | – | inhibition mode toward α-Gal A (Lineweaver-Burk plots) (human lysosomal α-Gal A): competitive inhibitors; Ki (human lysosomal α-Gal A; p-nitrophenyl-α-D-galactopyranoside as substrate, read-out: Ki for α-Gal A, from the slope of Lineweaver-Burk plots): 16 µM; IC50 (human lysosomal α-Gal A; read-out: IC30 and (Ki)*: IC50 values (inhibitor concentration giving 50% inhibition) for α-Gal A, p-nitrophenyl-α-D-galactopyranoside as substrate, pH 4.5): 24 µM; IC50 [2]: 0.71 µM; increase of α-Gal A enzyme activity in R301Q lymphoblasts (mutant α-Gal A (R301Q); inhibitor at 100 μM, 4 days): 2.3 fold; enhancement of α-Gal A activity in R301Q lymphoblasts (mutant α-Gal A (R301Q); inhibitor at 1000 μM, 4 days): 6.3 fold
O[C@@H]1C[C@H]2CC[C@](O)(N2)[C@H]1O [compound 17, Calystegine A3] | 126 | effectively increase | 3.1 | elevated with increasing concentration | intracellular β-Glu activity in Gaucher fibroblasts (summary) [4]: effectively enhance
O[C@@H]1[C@@H](O)[C@H](O)[C@]2(O)CC[C@H]1N2 [compound 18, calystegine B2] | 230 | effectively increase | 0.99 | elevated with increasing concentration | intracellular β-Glu activity in Gaucher fibroblasts (summary) [4]: effectively enhance
CN1C2CCC1(O)C(O)C(O)C2O (stereo not shown) [compound 20, N-methyl calystegine B2] | – | effectively increase | 320 | elevated with increasing concentration | –
OC[C@H]1CNC[C@@H](O)[C@H]1O [compound 21, 4-epi-isofagomine] | – | – | – | – | β-Gal enhancement effect in fibroblasts of infant type disease (BGF-1 and BGF-6) ([5]; DGJ 500 μM, 4-epi-isofagomine 50 μM, 5 days): not efficient; intracellular β-Gal activity in GM1-gangliosidosis fibroblasts (summary) ([5]; concentration ranges of 50-500 μM): effectively enhance; intracellular β-Gal activity elevated to, % of normal ([5]; fibroblasts of juvenile and adult types, 5 days, FIG. 7B (50 μM)): 9-53 % of normal
